# Measurements published in patent publication US8404646B2, “Methods for preventing or treating mitochondrial permeability transition” (Cornell Research Foundation, Inc., priority 2003, dated 2013).
# Entries after “also recorded” stand apart in the source; their conditions may differ. Non-standard residues stand in square brackets, D forms with d. Residues, ends and D or L forms follow the SMILES beside them. Dmt = Cc1cc(O)cc(C)c1C[C@H](N)C(=O)O
# Columns and labels:
# Sprague-Dawley rats [1] = assay: Assessment of arrhythmias in infarction/reperfusion; type: in vivo, rat; details: 3 mg/kg IP twice, entire study period
# Protocol: (§1) Adult male […] rats (F344 strain, National Institute of Aging, maintained by Harian Sprague-Dawley Inc.), weighting between 285 and 425 gm, were used. […]
# An ECG was recorded continuously from a standard lead II (AC AMP 700) inserted into the limbs of all rats. […] The cardiac arrhythmias were monitored and assessed in accordance with the Lambeth Convention. […] A validated score was used to quantify the severity of cardiac arrhythmias. […]
# All values are expressed as mean±standard error of mean (S.E.M.). […] Differences among groups in body weight, heart rate, arrhythmia, area at risk as a percentage of the left ventricle, and area of infarction as a percentage of the area at risk were analyzed using ANOVA. If significant differences were detected, comparisons between the control group and the 2 treatment groups were conducted using the Mann-Whitney U-test. […]
# [2] = Body weight and heart rate during the infarction/reperfusion experiment; type: in vivo, rat
# Protocol: Adult male […] rats (F344 strain, National Institute of Aging, maintained by Harian Sprague-Dawley Inc.), weighting between 285 and 425 gm, were used. Twenty-four rats (n=8/group) were randomly assigned to one of three groups: (1) Control group was given 0.4 ml of saline as an intra-peritoneal (IP) injection 30 minutes before the ligation of left anterior descending coronary artery, followed by same IP dose injection 5 minutes before reperfusion; (2) SS-31 group was treated with SS-31 (3 mg/kg dissolved in 0.4 ml of saline) as an IP injection 30 minutes before the ligation followed by same IP dose injection as maintenance 5 minutes before reperfusion; and (3) SS-20 group was treated with SS-20 (3 mg/kg dissolved in 0.4 ml of saline) as an IP injection 30 minutes before the ligation followed by same dose IP injection as maintenance just 5 minutes before reperfusion. Also, Sham-operated rats (n=3) were used to account for possible effects related to the surgical protocol. All procedures were performed in a blinded manner, with the groups assigned letters and their identities unknown to the operators. Likewise, the two independent investigators analyzing the data were blind to the treatment assignments.
# After anesthesia with ketamine (90 mg/kg IP) and xylazine (4 mg/kg IP), a tracheotomy was performed, and the rat was intubated with polyethylene tube and ventilated (Harvard Rodent Ventilator model 683) with room air and a tidal volume of 0.65 ml/100 gm of body weight at 90 breaths per minute. Body temperature was maintained at 37° C. by using a heated operating table. The internal jugular vein was surgically exposed and a polyethylene tube was inserted for Evans blue dye solution injection. Peripheral limb electrodes were inserted subcutaneously and electrocardiogram was monitored throughout the procedure.
# An ECG was recorded continuously from a standard lead II (AC AMP 700) inserted into the limbs of all rats. The ECG was printed at 25 mm/second. The cardiac arrhythmias were monitored and assessed in accordance with the Lambeth Convention. The assessment was performed in a blinded manner using the original paper recordings. A validated score was used to quantify the severity of cardiac arrhythmias. The score consisted of six types: 0, no ventricular extrasystoles (VES), ventricular tachycardia (VT) or ventricular fibrillation (VF); 1=VES; 2=one to five episodes of VT (more than four coupled VES); 3=more than five episodes of VT and/or one VF; 4=two to five episodes of VF; 5=more than five episodes of VF.
# All values are expressed as mean±standard error of mean (S.E.M.). Statistical analyses were performed using SPSS version 10. Differences among groups in body weight, heart rate, arrhythmia, area at risk as a percentage of the left ventricle, and area of infarction as a percentage of the area at risk were analyzed using ANOVA. If significant differences were detected, comparisons between the control group and the 2 treatment groups were conducted using the Mann-Whitney U-test. A two-tailed p<0.05 was regarded as significant.
# isolated mitochondria [3] = assay: Cytochrome c release from isolated mitochondria (ELISA); type: biochemical, mouse; details: Ca2+ overload
# Protocol: (§2) MPT pore opening results in mitochondrial swelling. We examined the effects of [Dmt^1]DALDA on mitochondrial swelling by measuring reduction in absorbance at 540 nm (A540). The mitochondrial suspension was then centrifuged and cytochrome c in the mitochondrial pellet and supernatant determined by a commercially-available ELISA kit.
# (§3) The methods for study are as described above for SS-02. In this example, mitochondrial swelling was measured using light scattering monitored at 570 nm.
# N2A cells = assay: tBHP-induced mitochondrial depolarization (TMRM, confocal); type: cell-based; details: 50 μM tBHP, 1 nM peptide, 6 h
# Protocol: FIG. 7. SS-31 protected against tBHP-induced mitochondrial depolarization and viability. N2A cells were plated in glass bottom dishes and treated with (A) control, or with (B) 50 μM tBHP, alone or with (e) 1 nM SS-31, for 6 hours. Cells were loaded with TMRM (20 nM) and imaged by confocal laser scanning microscopy using ex/em of 552/570 nm.
# To investigate whether SS-31 prevents mitochondria) depolarization caused by tBHP, N2A cells were treated with 50 μM tBHP for 6 h.
# [4] = test system: isolated perfused guinea pig heart; assay: Ischemia-reperfusion myocardial stunning in isolated perfused heart (Langendorff); details: 1 nM
# Protocol: Guinea pig hearts were rapidly isolated, and the aorta was cannulated in situ and perfused in a retrograde fashion with an oxygenated Krebs-Henseleit solution (pH 7.4) at 34° C. The heart was then excised, mounted on a modified Langendorff perfusion apparatus, and perfused at constant pressure (40 cm H2O). Contractile force was measured with a small hook inserted into the apex of the left ventricle and the silk ligature tightly connected to a force-displacement transducer. Coronary flow was measured by timed collection of pulmonary artery effluent.
# Reperfusion was carried out with the same solution used prior to ischemia.
# [5] = test system: mitochondrial permeability transition (MPT) in isolated mitochondria; assay: Mitochondrial membrane potential and MPT measured with TMRM; type: biochemical, mouse; details: pretreatment 10 μM
# Protocol: In addition to having no direct effect on mitochondrial potential, [Dmt^1]DALDA was able to protect against MPT induced by Ca^2+ overload.
# 3-Nitropropionic acid (3NP) is an irreversible inhibitor of succinate dehydrogenase in complex II of the electron transport chain. Addition of 3NP (1 mM) to isolated mitochondria caused dissipation of mitochondrial potential and onset of MPT (FIG. 2C).
# isolated mitochondria [6] = assay: Mitochondrial swelling (absorbance 540 nm or light scattering 570 nm); type: biochemical, mouse; details: 50 μM peptide, light scattering at 570 nm
# Protocol: as §2, §3
# Sprague-Dawley rats [7] = assay: Myocardial infarction/reperfusion, area at risk and area of infarction; type: in vivo, rat; details: 3 mg/kg IP 30 min before ligation and 5 min before reperfusion; 1 h ischemia, 1 h reperfusion
# Protocol: as §1
# After anesthesia with ketamine (90 mg/kg IP) and xylazine (4 mg/kg IP), a tracheotomy was performed, and the rat was intubated with polyethylene tube and ventilated (Harvard Rodent Ventilator model 683) with room air and a tidal volume of 0.65 ml/100 gm of body weight at 90 breaths per minute. […] Peripheral limb electrodes were inserted subcutaneously and electrocardiogram was monitored throughout the procedure. […]
# At the end of reperfusion, the left coronary artery was briefly re-occluded and Evans blue dye solution (2 ml of 2%, Sigma) was slowly injected into the jugular vein to distinguish the perfused area (blue staining) from the area at risk (no staining). […] After a 14-day formalin immersion, the slices were scanned again and all scanned areas were quantified with NIH Imagesoftware. […]
smiles,measurement,setting,value
"Cc1cc(O)cc(C)c1C[C@H](NC(=O)[C@H](N)CCCNC(=N)N)C(=O)N[C@@H](CCCCN)C(=O)N[C@@H](Cc1ccccc1)C(N)=O [SS-31, D-Arg-2′6′Dmt-Lys-Phe-NH2] (H-[dR][Dmt]KF-NH2; N-terminus assumed)",Severity and occurrence rate of cardiac arrhythmias (score),Sprague-Dawley rats [1],5 points
same,Heart Rate Baseline,[2]; Baseline,257 ± 10
same,Heart Rate Ischemia,[2]; first column,184 ± 14
same,Heart Rate Ischemia,[2]; second column,169 ± 15
same,Heart Rate Open chest,[2]; Open chest,236 ± 8
same,Heart Rate Reperfusion,[2]; first column,161 ± 12
same,Heart Rate Reperfusion,[2]; second column,164 ± 13
same,Ca2+-induced release of cytochrome c,isolated mitochondria [3],same ability to protect
same,tBHP-induced loss of mitochondrial potential (TMRM fluorescence),N2A cells,completely blocked; also recorded: protected
same,cardiac stunning,[4],complete inhibition of cardiac stunning
same,coronary flow throughout reperfusion,[4],well-sustained
same,heart rate,[4],no decrease
same,myocardial contractile force during ischemia-reperfusion,[4]; 30 min global ischemia,tolerated ischemia much better than buffer-treated hearts; also recorded: protects myocardial contractile force
same,MPT induced by Ca2+ overload,[5],same ability to protect; also recorded: prevents onset of MPT
same,mitochondrial swelling induced by Ca2+,isolated mitochondria [6],same ability to protect; also recorded: inhibited mitochondrial swelling
same,AAR/LV ratio (area at risk relative to left ventricle),Sprague-Dawley rats [7],55.9±1.4%
same,AI/AAR ratio (area of infarction as percentage of area at risk),Sprague-Dawley rats [7],53.9±1.1%
